According to ChEMBL document CHEMBL1201862, “PubChem BioAssay data set” (2004):
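Step 1: Grow cells in 96-well plates. Step 2: Expose to compound for 48 hours at 5 concentrations. Step 3: Interpolate endpoints linearly; if unreached, use highest concentration. Here, GI50 denotes the concentration required for 50% inhibition of growth.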 The source made the active and inactive calls. Rule as the data show it: active = GI50 up to about 1.1 µM and inactive = higher.

Tests used:
Test in all cases: NCI tumour cell line growth inhibition, 48 h
T47D = system: T47D
DU-145 = system: DU-145
U-251 = system: U-251
SF-295 = system: SF-295
HOP-62 = system: HOP-62
HL-60 = system: HL-60
CCRF-CEM = system: CCRF-CEM
SF-539 = system: SF-539
COLO 205 = system: COLO 205
Hs-578T = system: Hs-578T
TK-10 = system: TK-10
UACC-62 = system: UACC-62
OVCAR-4 = system: OVCAR-4
SK-OV-3 = system: SK-OV-3
HCT-15 = system: HCT-15
KM12 = system: KM12
OVCAR-8 = system: OVCAR-8
M14 = system: M14
MDA-MB-231 = system: MDA-MB-231
HOP-92 = system: HOP-92

| SMILES | GI50 (T47D) | GI50 (DU-145) | GI50 (U-251) | GI50 (SF-295) | GI50 (HOP-62) | GI50 (HL-60) | GI50 (CCRF-CEM) | GI50 (SF-539) | GI50 (COLO 205) | GI50 (Hs-578T) | GI50 (TK-10) | GI50 (UACC-62) | GI50 (OVCAR-4) | GI50 (SK-OV-3) | GI50 (HCT-15) | GI50 (KM12) | GI50 (OVCAR-8) | GI50 (M14) | GI50 (MDA-MB-231) | GI50 (HOP-92) |
| --- | --- | --- | --- | --- | --- | --- | --- | --- | --- | --- | --- | --- | --- | --- | --- | --- | --- | --- | --- | --- |
| COc1cc2c(cc1OC)-c1[nH]c3ccc([N+](=O)[O-])cc3c1CC(=O)N2 | 7.28 µM (inactive) | 1.68 µM (inactive) | 3.32 µM (inactive) | 3.53 µM (inactive) | 3.1 µM (inactive) | 2.94 µM (inactive) | 0.975 µM (active) | 0.316 µM (active) | 0.325 µM (active) | 0.2 µM (active) | 2.37 µM (inactive) | 5.4 µM (inactive) | 3.19 µM (inactive) | 3.15 µM (inactive) | 2.11 µM | 0.867 µM (active) | 2.82 µM (inactive) | 5.38 µM (inactive) | 4.15 µM (inactive) |  |
| COc1ccc(CNc2nc3cc(C(F)(F)F)ccc3nc2-c2ccccc2)cc1OC | 24.3 µM (inactive) | 87.5 µM (inactive) |  | 29.4 µM (inactive) | 23.9 µM (inactive) | 34 µM (inactive) | 22.6 µM (inactive) | 45.9 µM (inactive) | 35.1 µM (inactive) | 25.2 µM (inactive) | 53.2 µM (inactive) | 50.6 µM (inactive) | 43.1 µM (inactive) | > 100 µM (inactive) | 28.2 µM | 29.5 µM (inactive) | 54.6 µM (inactive) | 49.3 µM (inactive) | 53.8 µM (inactive) |  |
| c1ccc(C2=Nn3c(CCCCCCCCc4nnc5n4N=C(c4ccccc4)CS5)nnc3SC2)cc1 | > 92.9 µM (inactive) | > 100 µM (inactive) | 15.6 µM (inactive) | 20.1 µM (inactive) | 17.4 µM (inactive) |  | 22.6 µM (inactive) | 3.45 µM (inactive) | > 100 µM (inactive) | 21.1 µM (inactive) | 29.2 µM (inactive) | 46.8 µM (inactive) | > 100 µM (inactive) | 25.9 µM (inactive) | > 100 µM | > 100 µM (inactive) | > 46.5 µM (inactive) | 37.6 µM (inactive) | 22.9 µM (inactive) | 34.2 µM (inactive) |
| CC1(C)[C@@H]2C[C@H]1c1cnc(-c3ccccn3)cc1C2[C@@H]1c2cc(-c3ccccn3)ncc2[C@@H]2C[C@H]1C2(C)C (stereo partly drawn) | 55.1 µM (inactive) | > 100 µM (inactive) | 36.1 µM (inactive) | 34.5 µM (inactive) | 39.1 µM (inactive) | 36.4 µM (inactive) | 47.5 µM (inactive) |  | 49.1 µM (inactive) | > 100 µM (inactive) | 16.6 µM (inactive) | 45 µM (inactive) | 20.6 µM (inactive) | 73.6 µM (inactive) | 24.5 µM | 33.3 µM (inactive) | 46.8 µM (inactive) | 38 µM (inactive) | > 100 µM (inactive) | > 100 µM (inactive) |
| C[C@@H]1OC(=O)C[C@H]2CC(=O)N(CCC3CN(C(=O)c4ccccc4)c4ccccc43)C[C@@H]21 (stereo partly drawn) | > 100 µM (inactive) | > 100 µM (inactive) | > 100 µM (inactive) | > 100 µM (inactive) | > 100 µM (inactive) |  |  |  | > 100 µM (inactive) | > 100 µM (inactive) | > 100 µM (inactive) | > 100 µM (inactive) | > 100 µM (inactive) | > 100 µM (inactive) | > 100 µM | > 100 µM (inactive) | > 100 µM (inactive) | > 100 µM (inactive) | > 100 µM (inactive) | > 100 µM (inactive) |
| COC(=O)C1Cc2ccc(C)cc2C1=O (stereo not drawn) | > 100 µM (inactive) | > 100 µM (inactive) | > 100 µM (inactive) | > 100 µM (inactive) | > 100 µM (inactive) | 25.8 µM (inactive) | > 100 µM (inactive) | > 100 µM (inactive) | > 100 µM (inactive) | > 100 µM (inactive) | > 100 µM (inactive) | > 100 µM (inactive) | > 100 µM (inactive) | > 100 µM (inactive) | > 100 µM | 83.4 µM (inactive) | > 100 µM (inactive) | > 100 µM (inactive) | > 100 µM (inactive) |  |
| COc1cc2nc(Nc3cccc(Br)c3)nc(Nc3cccc(Br)c3)c2cc1OC | 17.1 µM (inactive) | 18.3 µM (inactive) | 19.2 µM (inactive) | 17.7 µM (inactive) | 18 µM (inactive) |  | 22.2 µM (inactive) |  | 13.9 µM (inactive) | 19.8 µM (inactive) | 21.5 µM (inactive) | 18.8 µM (inactive) | 15.7 µM (inactive) | 19.2 µM (inactive) | 17.7 µM | 18.9 µM (inactive) | 16.6 µM (inactive) | 18.2 µM (inactive) | 21.8 µM (inactive) | 15.3 µM (inactive) |
| Cc1ccc(S(=O)(=O)N(CC(O)COc2ccccc2)c2ccccc2Cl)cc1 (stereo not drawn) | 24.9 µM (inactive) | 28.8 µM (inactive) | 14.4 µM (inactive) | 24.3 µM (inactive) | 20 µM (inactive) | 24.6 µM (inactive) | 13.9 µM (inactive) | 18 µM (inactive) | 16.8 µM (inactive) | 10.9 µM (inactive) | 14.2 µM (inactive) | 8.61 µM (inactive) | 12.4 µM (inactive) | 23.8 µM (inactive) | 15.8 µM | 14.6 µM (inactive) | 16.3 µM (inactive) | 16.5 µM (inactive) | 14.6 µM (inactive) |  |
| Cc1c(CNc2ccc(Cl)c(C(=O)NC(CC(=O)O)C(=O)O)c2)ccc2nc(N)nc(N)c12 (stereo not drawn) | > 100 µM (inactive) | 0.0588 µM (active) | 0.134 µM (active) | 0.126 µM (active) | 0.256 µM (active) | 2.42 µM (inactive) | 0.0753 µM (active) | 2.62 µM (inactive) | 4.66 µM (inactive) | 506 µM (inactive) | 5.12 µM (inactive) | 0.0501 µM (active) |  | 33.7 µM (inactive) | 0.0265 µM | 0.106 µM (active) | 0.0399 µM (active) | 0.0163 µM (active) | > 100 µM (inactive) |  |
| CC(=O)N(O)[C@@H]1CC[C@H](n2cnc3c(N)ncnc32)C1 | > 100 µM (inactive) | > 100 µM (inactive) | > 100 µM (inactive) | > 100 µM (inactive) | > 100 µM (inactive) |  | > 100 µM (inactive) | > 100 µM (inactive) | > 100 µM (inactive) | > 100 µM (inactive) | > 100 µM (inactive) | > 100 µM (inactive) | > 100 µM (inactive) | > 100 µM (inactive) | > 100 µM | > 100 µM (inactive) | > 100 µM (inactive) | > 100 µM (inactive) | > 100 µM (inactive) | > 100 µM (inactive) |
| COc1ccc(N2C(=O)C3c4[nH]c5ccccc5c4C4CCC(C(C)(C)C)CC4C3C2=O)c(C)c1 (stereo not drawn) | > 100 µM (inactive) | > 100 µM (inactive) | > 100 µM (inactive) | > 100 µM (inactive) | > 100 µM (inactive) | > 100 µM (inactive) | > 100 µM (inactive) | > 100 µM (inactive) | > 100 µM (inactive) | 51.3 µM (inactive) | > 100 µM (inactive) | > 100 µM (inactive) | > 100 µM (inactive) | > 100 µM (inactive) | > 100 µM | > 100 µM (inactive) | > 100 µM (inactive) | > 100 µM (inactive) | > 100 µM (inactive) |  |
| COc1ccc(-c2cc(-c3cc4cc(Br)ccc4nc3Cl)c(C#N)c(N)n2)cc1 | > 12.5 µM (inactive) | > 12.5 µM (inactive) |  | > 12.5 µM (inactive) | > 12.5 µM (inactive) | > 12.5 µM (inactive) | > 12.5 µM (inactive) | > 12.5 µM (inactive) | > 12.5 µM (inactive) | > 12.5 µM (inactive) |  |  | > 12.5 µM (inactive) | > 12.5 µM (inactive) | > 12.5 µM | > 12.5 µM (inactive) | > 12.5 µM (inactive) | > 12.5 µM (inactive) |  | > 12.5 µM (inactive) |
| C=CCSc1nn(CC=C)cc2ncnc1-2 | > 100 µM (inactive) | > 100 µM (inactive) | > 100 µM (inactive) | > 100 µM (inactive) | > 100 µM (inactive) | > 100 µM (inactive) | > 100 µM (inactive) | > 100 µM (inactive) | > 100 µM (inactive) | > 100 µM (inactive) | > 100 µM (inactive) | > 100 µM (inactive) |  |  | > 100 µM | > 100 µM (inactive) | > 100 µM (inactive) | > 100 µM (inactive) | > 100 µM (inactive) |  |
| O=C(O)C1C2OC(C(Br)C2Br)C1C(=O)O (stereo not drawn) | > 100 µM (inactive) | > 100 µM (inactive) | > 100 µM (inactive) | > 100 µM (inactive) | > 100 µM (inactive) | > 100 µM (inactive) |  | > 100 µM (inactive) | > 100 µM (inactive) | 24.7 µM (inactive) | > 100 µM (inactive) | > 100 µM (inactive) | > 100 µM (inactive) | > 100 µM (inactive) | > 100 µM | > 100 µM (inactive) | > 100 µM (inactive) | > 100 µM (inactive) | > 100 µM (inactive) |  |
| COc1ccccc1NC(=S)Nc1cccc(C)n1 | > 100 µM (inactive) | > 100 µM (inactive) | > 100 µM (inactive) | 69 µM (inactive) | 43.6 µM (inactive) | > 100 µM (inactive) | > 100 µM (inactive) | > 100 µM (inactive) | > 100 µM (inactive) | 37.2 µM (inactive) | > 100 µM (inactive) | 42.4 µM (inactive) | > 100 µM (inactive) | > 100 µM (inactive) | > 100 µM | 25.6 µM (inactive) | > 100 µM (inactive) | > 100 µM (inactive) |  |  |
